From patent US5304540A, “Pharmaceutical bacteriocin compositions and methods for using the same” (Applied Microbiology, Inc., priority 1993, dated 1994)
Read-outs that look alike come from different tables or passages of the source.

Experiments:
Escherichia coli = experiment: Germicidal suspension assay, E. coli; type: cell-based; settings: for % survival at 1 min: 37° C.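 For all read-outs here: surviving cells were scored as colonies on nutrient agar after 24 h at 37° C, survival given as percent of untreated controls.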
Experimental: E. coli cells from an overnight Trypticase soy nutrient agar (TSA) were resuspended to a density measured as an absorbance of 1.0 at 600 nm in sterile ddH2 O. The reaction of the cells with each of the bactericidal test formulations analyzed was started by addition of 30 μl of cells to 970 μl of test formulation. The reaction mixture was incubated at 37° C for at least 1 minute and then centrifuged in a microfuge for 1 minute. The cell pellet was washed by resuspension in 1 ml of neutralization buffer. (The neutralization buffer: 50 mM Tris-HCl, pH 7.0, 5 mM MgSO4, 20 mM CaCl2, 0.1 M NaCl and 0.1% gelatin was prepared by first making Tris buffer and adjusting the pH. The salts and gelatin were then added and the solution stirred with heat until the solution was clear. The solution was then autoclaved for 20 min. The neutralization buffer was used without dilution.) The cells were centrifuged in a microfuge for 1 minute and resuspended in 1 ml of neutralization buffer. The viable count was determined by spreading 100 μl of bacterial suspension and serial dilutions thereof in neutralization buffer on nutrient agar and scoring surviving colonies after 24 h at 37° C. Percent survival relative to untreated controls was calculated from the scored values.

E. coli strain ATCC8739 = experiment: Nisin-citrate agar growth inhibition assay; type: cell-based, Escherichia coli
Experimental: The nisin-citrate agar assay is performed as follows. E. coli is resuspended to an optical density of 1.0 at A600. A 100 μl sample of the bacterial suspension is spread uniformly on Trypticase Soy nutrient agar (TSA) supplemented with various concentrations of citrate (e.g. 0.1%, 0.3%, 1.0%, 3.0%) and incubated for 1 hour at 37° C. A nisin stock solution and serial dilutions thereof in 0.1% bovine serum albumin (BSA), are prepared and 5 μl are taken from each and deposited onto the growing bacterial lawn. The TSA plates are then incubated for 24 hours at 37° C. After 24 hours at 37° C., E. coli grown on TSA supplemented with citrate form a confluent lawn. […] The effectiveness of nisin against the gram negative bacteria can be assessed from determining the minimum amount of nisin required to produce a clear zone of growth inhibition. As the concentration of citrate in the nutrient agar is increased, less nisin is required to inhibit the growth of E. coli, as is illustrated by the data shown in Table 6.

Substance: nisin
- % survival at 1 min (Escherichia coli; 0.1% w/v acetate pH 3.5, nisin 100 μg/ml and/or EDTA 1.0 mM where present, initial 2 × 10^7 cfu/ml): 9.6%
- % survival at 1 min (Escherichia coli; 0.1% w/v lactate pH 3.5, nisin 100 μg/ml and/or EDTA 1.0 mM where present, initial 5 × 10^7 cfu/ml): 4.4%
- % survival at 1 min (Escherichia coli; 0.1% w/v succinate pH 3.5, nisin 100 μg/ml and/or EDTA 1.0 mM where present, initial 3.4 × 10^6 cfu/ml): 18.3%
- % survival at 1 min (Escherichia coli; 0.3% w/v acetate pH 3.5, nisin 100 μg/ml and/or EDTA 1.0 mM where present, initial 2 × 10^7 cfu/ml): 70%
- % survival at 1 min (Escherichia coli; 0.3% w/v lactate pH 3.5, nisin 100 μg/ml and/or EDTA 1.0 mM where present, initial 5 × 10^7 cfu/ml): 0.24%
- % survival at 1 min (Escherichia coli; 0.3% w/v succinate pH 3.5, nisin 100 μg/ml and/or EDTA 1.0 mM where present, initial 3.4 × 10^6 cfu/ml): 66.6%
- % survival at 1 min (Escherichia coli; 1.0% w/v acetate pH 3.5, nisin 100 μg/ml and/or EDTA 1.0 mM where present, initial 2 × 10^7 cfu/ml): 100%
- % survival at 1 min (Escherichia coli; 1.0% w/v lactate pH 3.5, nisin 100 μg/ml and/or EDTA 1.0 mM where present, initial 5 × 10^7 cfu/ml): 17.8%
- % survival at 1 min (Escherichia coli; 1.0% w/v succinate pH 3.5, nisin 100 μg/ml and/or EDTA 1.0 mM where present, initial 3.4 × 10^6 cfu/ml): 83.4%
- % survival at 1 min (Escherichia coli; 3.0% w/v acetate pH 3.5, nisin 100 μg/ml and/or EDTA 1.0 mM where present, initial 2 × 10^7 cfu/ml): 100%
- % survival at 1 min (Escherichia coli; 3.0% w/v lactate pH 3.5, nisin 100 μg/ml and/or EDTA 1.0 mM where present, initial 5 × 10^7 cfu/ml): 26.7%
- % survival at 1 min (Escherichia coli; 3.0% w/v succinate pH 3.5, nisin 100 μg/ml and/or EDTA 1.0 mM where present, initial 3.4 × 10^6 cfu/ml): 28.4%
- survival of E. coli on exposure to the agent by itself (Escherichia coli; agent by itself): unaffected
- % survival at 1 min (Escherichia coli; pH 2.0, 20 mM Na acetate buffer, nisin 100 μg/ml and/or EDTA 1.0 mM, initial 4 × 10^7 cfu/ml): 0.28%
- % survival at 1 min (Escherichia coli; pH 2.5, 20 mM Na acetate buffer, nisin 100 μg/ml and/or EDTA 1.0 mM, initial 4 × 10^7 cfu/ml): 3.37%
- % survival at 1 min (Escherichia coli; pH 3.0, 20 mM Na acetate buffer, nisin 100 μg/ml and/or EDTA 1.0 mM, initial 4 × 10^7 cfu/ml): 4.43%
- % survival at 1 min (Escherichia coli; pH 3.5, 20 mM Na acetate buffer, nisin 100 μg/ml and/or EDTA 1.0 mM, initial 4 × 10^7 cfu/ml): 100%
- % survival at 1 min (Escherichia coli; pH 4.0, 20 mM Na acetate buffer, nisin 100 μg/ml and/or EDTA 1.0 mM, initial 4 × 10^7 cfu/ml): 100%
- Nisin NIC (nominal inhibitory concentration of nisin minimally required to prevent growth) (E. coli strain ATCC8739; Trypticase Soy Agar supplemented with 0.1% citrate): 370 µg/mL
- Nisin NIC (nominal inhibitory concentration of nisin minimally required to prevent growth) (E. coli strain ATCC8739; Trypticase Soy Agar supplemented with 0.3% citrate): 123 µg/mL
- Nisin NIC (nominal inhibitory concentration of nisin minimally required to prevent growth) (E. coli strain ATCC8739; Trypticase Soy Agar supplemented with 1.0% citrate): 13.7 µg/mL
- Nisin NIC (nominal inhibitory concentration of nisin minimally required to prevent growth) (E. coli strain ATCC8739; Trypticase Soy Agar supplemented with 3.0% citrate): 0.06 µg/mL
- Nisin NIC (nominal inhibitory concentration of nisin minimally required to prevent growth) (E. coli strain ATCC8739; Trypticase Soy Agar, 0% citrate): 3,333 μg/ml
- % survival at 5 min (Helicobacter pylori; pH 7): 5.88
- % survival at 5 min (Helicobacter pylori; strain ATCC43504, pH 5.0, citrate 0, nisin 100 μg/ml, second of two experiments (initial 3.26 × 10^5 cfu/ml)): 0.043%
- % survival at 5 min (Helicobacter pylori; strain ATCC43504, pH 7.0, citrate 0, nisin 100 μg/ml, initial 9.62 × 10^4 cfu/ml): 2.08%
- % survival at 5 min (Helicobacter pylori; strain ATCC43579, citrate 0, nisin 100 μg/ml, pH 5.0, average of 5 experiments): 0.30%
- % survival at 5 min (Helicobacter pylori; strain ATCC43579, pH 5.0, citrate 0, nisin 100 μg/ml, 37° C., initial 1.04 × 10^4 cfu/ml): 9.62%
- % survival at 5 min (Helicobacter pylori; strain ATCC43579, pH 5.0, nisin 10 μg/ml, citrate 0.1% where present, 37° C.): 1.31%
- % survival at 5 min (Helicobacter pylori; strain ATCC43579, pH 5.0, nisin 30 μg/ml, citrate 0.1% where present, 37° C.): 0.39%
- % survival at 5 min (Helicobacter pylori; strain ATCC43579, pH 5.0, nisin 100 μg/ml, citrate 0.1% where present, 37° C.): 0.085%
- % survival at 5 min (Helicobacter pylori; strain ATCC43579, pH 5.0, nisin 300 μg/ml, citrate 0.1% where present, 37° C.): 0.0056%
- % survival at 5 min (Helicobacter pylori; strain ATCC43579, pH 7.0, citrate 0, nisin 100 μg/ml, 37° C.): 0.78%
